Laboratory results taken from PubChem BioAssay (NCI).
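Following 48 hours of exposure in 96-well plates, responses at five concentrations were used to interpolate endpoints linearly. GI50 is the concentration that inhibits growth by half. TGI denotes the concentration required for complete inhibition of growth.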

How the values were obtained:
Assay in all cases: NCI tumour cell line growth inhibition, 48 h
SF-295 CNS = test system: SF-295 CNS
PC-3 prostate = test system: PC-3 prostate
LOX IMVI melanoma = test system: LOX IMVI melanoma
SK-MEL-5 melanoma = test system: SK-MEL-5 melanoma
NCI-H23 lung = test system: NCI-H23 lung
UACC-257 melanoma = test system: UACC-257 melanoma
SN12C renal = test system: SN12C renal
SR leukemia = test system: SR leukemia
MDA-MB-231 breast = test system: MDA-MB-231 breast
BT-549 breast = test system: BT-549 breast
SF-268 CNS = test system: SF-268 CNS
A549 NSCLC = test system: A549 NSCLC
HT29 colon = test system: HT29 colon
UACC-62 melanoma = test system: UACC-62 melanoma
SW-620 colon = test system: SW-620 colon
COLO 205 colon = test system: COLO 205 colon
HOP-92 NSCLC = test system: HOP-92 NSCLC
M14 melanoma = test system: M14 melanoma
TK-10 renal = test system: TK-10 renal
HCT-116 colon = test system: HCT-116 colon
SF-539 CNS = test system: SF-539 CNS
KM12 colon = test system: KM12 colon
EKVX NSCLC = test system: EKVX NSCLC
SK-MEL-2 melanoma = test system: SK-MEL-2 melanoma
NCI-H460 lung = test system: NCI-H460 lung
MALME-3M melanoma = test system: MALME-3M melanoma
OVCAR-5 ovarian = test system: OVCAR-5 ovarian
SNB-75 CNS = test system: SNB-75 CNS
CCRF-CEM leukemia = test system: CCRF-CEM leukemia
786-0 renal = test system: 786-0 renal
RPMI-8226 leukemia = test system: RPMI-8226 leukemia
IGROV1 ovarian = test system: IGROV1 ovarian
HL-60(TB) leukemia = test system: HL-60(TB) leukemia
OVCAR-3 ovarian = test system: OVCAR-3 ovarian
RXF 393 renal = test system: RXF 393 renal
CAKI-1 renal = test system: CAKI-1 renal
SNB-19 CNS = test system: SNB-19 CNS
NCI-H226 lung = test system: NCI-H226 lung
ACHN renal = test system: ACHN renal
MOLT-4 leukemia = test system: MOLT-4 leukemia
DU-145 prostate = test system: DU-145 prostate
OVCAR-8 ovarian = test system: OVCAR-8 ovarian
SK-MEL-28 melanoma = test system: SK-MEL-28 melanoma
U251 CNS = test system: U251 CNS
K-562 leukemia = test system: K-562 leukemia
MCF7 breast = test system: MCF7 breast
HCC-2998 colon = test system: HCC-2998 colon
OVCAR-4 ovarian = test system: OVCAR-4 ovarian
HS 578T breast = test system: HS 578T breast
HOP-62 NSCLC = test system: HOP-62 NSCLC
MDA-MB-435 = test system: MDA-MB-435
NCI/ADR-RES ovarian = test system: NCI/ADR-RES ovarian
HCT-15 colon = test system: HCT-15 colon
UO-31 renal = test system: UO-31 renal
NCI-H522 lung = test system: NCI-H522 lung
SK-OV-3 ovarian = test system: SK-OV-3 ovarian
A498 renal = test system: A498 renal

## COc1ccccc1C(=O)c1ccc2ccccc2c1
SF-295 CNS
  TGI: 79.8 µM
PC-3 prostate
  TGI: > 100 µM
LOX IMVI melanoma
  TGI: 31.7 µM
SK-MEL-5 melanoma
  TGI: 19.8 µM
NCI-H23 lung
  TGI: > 100 µM
UACC-257 melanoma
  TGI: > 100 µM
SN12C renal
  TGI: > 100 µM
SR leukemia
  TGI: 16.1 µM
MDA-MB-231 breast
  TGI: > 100 µM
BT-549 breast
  TGI: 52.7 µM
SF-268 CNS
  TGI: > 100 µM
A549 NSCLC
  TGI: > 100 µM
HT29 colon
  TGI: 85.7 µM
UACC-62 melanoma
  TGI: > 100 µM
SW-620 colon
  TGI: 75.2 µM
COLO 205 colon
  TGI: 61.5 µM
HOP-92 NSCLC
  TGI: 66.5 µM
M14 melanoma
  TGI: 58.1 µM
TK-10 renal
  TGI: 63.6 µM
HCT-116 colon
  TGI: > 100 µM
SF-539 CNS
  TGI: 25.8 µM
KM12 colon
  TGI: 33.2 µM
EKVX NSCLC
  TGI: 77.8 µM
SK-MEL-2 melanoma
  TGI: 37.5 µM
NCI-H460 lung
  TGI: 84.1 µM
MALME-3M melanoma
  TGI: 42.6 µM
OVCAR-5 ovarian
  TGI: > 100 µM
SNB-75 CNS
  TGI: > 100 µM
CCRF-CEM leukemia
  TGI: > 100 µM
786-0 renal
  TGI: > 100 µM
RPMI-8226 leukemia
  TGI: 97.5 µM
IGROV1 ovarian
  TGI: 53 µM
HL-60(TB) leukemia
  TGI: 21.8 µM
OVCAR-3 ovarian
  TGI: 39.6 µM
RXF 393 renal
  TGI: 61 µM
CAKI-1 renal
  TGI: 49.2 µM
SNB-19 CNS
  TGI: 78.4 µM
NCI-H226 lung
  TGI: > 100 µM
ACHN renal
  TGI: > 100 µM
MOLT-4 leukemia
  TGI: 34 µM
DU-145 prostate
  TGI: > 100 µM
OVCAR-8 ovarian
  TGI: 75.9 µM
SK-MEL-28 melanoma
  TGI: > 100 µM
U251 CNS
  TGI: > 100 µM
K-562 leukemia
  TGI: > 100 µM
MCF7 breast
  TGI: > 100 µM
HCC-2998 colon
  TGI: > 100 µM
OVCAR-4 ovarian
  TGI: > 100 µM
HS 578T breast
  TGI: 39.1 µM
HOP-62 NSCLC
  TGI: > 100 µM
MDA-MB-435
  TGI: 8.88 µM
NCI/ADR-RES ovarian
  TGI: > 100 µM
HCT-15 colon
  TGI: > 100 µM
UO-31 renal
  TGI: 64.7 µM
NCI-H522 lung
  TGI: 21.5 µM

## O=C(Nc1cc(-c2ccccc2)[nH]n1)c1ccc(Cl)cc1
SF-295 CNS
  GI50: 1.91 µM
  TGI: > 100 µM
PC-3 prostate
  GI50: 37.4 µM
  TGI: > 100 µM
LOX IMVI melanoma
  GI50: 9.23 µM
  TGI: > 100 µM
SK-MEL-5 melanoma
  GI50: > 100 µM
  TGI: > 100 µM
NCI-H23 lung
  GI50: > 100 µM
  TGI: > 100 µM
UACC-257 melanoma
  GI50: > 100 µM
  TGI: > 100 µM
SN12C renal
  GI50: > 100 µM
  TGI: > 100 µM
SR leukemia
  GI50: 5.65 µM
  TGI: > 100 µM
MDA-MB-231 breast
  GI50: 30.4 µM
  TGI: > 100 µM
BT-549 breast
  GI50: > 100 µM
  TGI: > 100 µM
SF-268 CNS
  GI50: 28.6 µM
  TGI: > 100 µM
A549 NSCLC
  GI50: 30.4 µM
  TGI: > 100 µM
HT29 colon
  GI50: 6.67 µM
  TGI: > 100 µM
UACC-62 melanoma
  GI50: > 100 µM
  TGI: > 100 µM
COLO 205 colon
  GI50: > 100 µM
  TGI: > 100 µM
HOP-92 NSCLC
  GI50: 37.1 µM
  TGI: > 100 µM
M14 melanoma
  GI50: 8.66 µM
  TGI: > 100 µM
TK-10 renal
  GI50: 9.22 µM
  TGI: > 100 µM
HCT-116 colon
  GI50: 9.22 µM
  TGI: > 100 µM
SF-539 CNS
  GI50: 17.9 µM
  TGI: > 100 µM
KM12 colon
  GI50: 3.28 µM
  TGI: > 100 µM
EKVX NSCLC
  GI50: > 100 µM
  TGI: > 100 µM
SK-MEL-2 melanoma
  GI50: 6.97 µM
  TGI: > 100 µM
NCI-H460 lung
  GI50: 3.58 µM
  TGI: > 100 µM
MALME-3M melanoma
  GI50: 12.1 µM
  TGI: > 100 µM
OVCAR-5 ovarian
  GI50: > 100 µM
  TGI: > 100 µM
SNB-75 CNS
  GI50: 17.7 µM
  TGI: 90.3 µM
786-0 renal
  GI50: 72.4 µM
  TGI: > 100 µM
RPMI-8226 leukemia
  GI50: > 100 µM
  TGI: > 100 µM
IGROV1 ovarian
  GI50: 3.04 µM
  TGI: > 100 µM
OVCAR-3 ovarian
  GI50: > 100 µM
  TGI: > 100 µM
RXF 393 renal
  GI50: 7.16 µM
  TGI: > 100 µM
CAKI-1 renal
  GI50: 2.66 µM
  TGI: > 100 µM
SNB-19 CNS
  GI50: 74.2 µM
  TGI: > 100 µM
SK-OV-3 ovarian
  GI50: 3.67 µM
  TGI: > 100 µM
NCI-H226 lung
  GI50: 56.7 µM
  TGI: > 100 µM
ACHN renal
  GI50: 5.27 µM
  TGI: > 100 µM
DU-145 prostate
  GI50: 6.96 µM
  TGI: > 100 µM
OVCAR-8 ovarian
  GI50: 24.2 µM
  TGI: > 100 µM
SK-MEL-28 melanoma
  GI50: > 100 µM
  TGI: > 100 µM
U251 CNS
  GI50: 9.42 µM
  TGI: > 100 µM
MCF7 breast
  GI50: > 100 µM
  TGI: > 100 µM
HCC-2998 colon
  GI50: > 100 µM
  TGI: > 100 µM
OVCAR-4 ovarian
  GI50: > 100 µM
  TGI: > 100 µM
HS 578T breast
  GI50: 3.96 µM
  TGI: 65.9 µM
HOP-62 NSCLC
  GI50: 20.7 µM
  TGI: > 100 µM
NCI/ADR-RES ovarian
  GI50: > 100 µM
  TGI: > 100 µM
HCT-15 colon
  GI50: 4.14 µM
  TGI: > 100 µM
UO-31 renal
  GI50: 7.32 µM
  TGI: > 100 µM
A498 renal
  GI50: 1.27 µM
  TGI: > 100 µM
